ChEMBL document CHEMBL1201862, “PubChem BioAssay data set” (2004)
Calls of active or inactive are those of the source.

Experiments:
SUMO-activating enzyme = SUMO-activating enzyme (Homo sapiens, UniProt Q9UBT2); assay: blockers of UBC9-mediated SUMO conjugation – biochemical, AlphaScreen, SUMOylation inhibitor project, confirmation (AID 2018); format: functional
[1] = Luminescence Cell-Based Dose Confirmation HTS to Identify Activators of 5'UTR Stem-Loop Driven Alpha-Synuclein mRNA Translation in H4 Neuroglioblastoma Cells. [Related pubchem assays: 1829 (Project Summary), 1814 (Primary HTS)]; format: functional
[2] = Luminescence Cell-Based Dose Response HTS to Identify Activators of Luciferase Translation or Activity in H4 […] Cells. [Related pubchem assays: 1829 (Project Summary), 1814 (Primary HTS)]; format: functional
Large T antigen = Large T antigen (Simian virus 40, UniProt P03070); format: functional, Betapolyomavirus macacae;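 note: Confirmatory-stage PubChem screen for compounds that inhibit SV40 T antigen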
Sequence of Large T antigen (P03070 whole entry): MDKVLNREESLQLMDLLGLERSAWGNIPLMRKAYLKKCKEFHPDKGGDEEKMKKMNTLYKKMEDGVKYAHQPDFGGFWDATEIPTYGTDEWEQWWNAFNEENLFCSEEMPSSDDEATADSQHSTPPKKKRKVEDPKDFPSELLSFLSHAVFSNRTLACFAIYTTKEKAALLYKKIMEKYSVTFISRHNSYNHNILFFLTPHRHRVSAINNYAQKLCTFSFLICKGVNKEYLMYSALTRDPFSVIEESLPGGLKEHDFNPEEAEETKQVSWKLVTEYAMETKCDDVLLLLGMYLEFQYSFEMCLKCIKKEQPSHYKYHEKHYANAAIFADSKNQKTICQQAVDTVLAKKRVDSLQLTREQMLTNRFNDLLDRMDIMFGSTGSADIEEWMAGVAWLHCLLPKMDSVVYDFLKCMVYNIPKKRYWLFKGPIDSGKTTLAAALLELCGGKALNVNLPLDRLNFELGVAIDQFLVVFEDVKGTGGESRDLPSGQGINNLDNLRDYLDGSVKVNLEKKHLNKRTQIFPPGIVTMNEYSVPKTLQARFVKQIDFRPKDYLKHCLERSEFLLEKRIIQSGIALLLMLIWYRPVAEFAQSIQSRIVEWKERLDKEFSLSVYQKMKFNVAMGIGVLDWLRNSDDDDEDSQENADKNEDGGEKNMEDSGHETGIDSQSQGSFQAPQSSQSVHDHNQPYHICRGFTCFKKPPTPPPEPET

[3] = target: Bifunctional protein GlmU (Mycobacterium tuberculosis, UniProt P9WMN3); assay: Inhibitors of Mycobacterial Glucosamine-1-phosphate acetyl transferase (GlmU). Secondary screen.; design: species or system Mycobacterium tuberculosis H37Rv
Sequence of Bifunctional protein GlmU (P9WMN3 whole entry): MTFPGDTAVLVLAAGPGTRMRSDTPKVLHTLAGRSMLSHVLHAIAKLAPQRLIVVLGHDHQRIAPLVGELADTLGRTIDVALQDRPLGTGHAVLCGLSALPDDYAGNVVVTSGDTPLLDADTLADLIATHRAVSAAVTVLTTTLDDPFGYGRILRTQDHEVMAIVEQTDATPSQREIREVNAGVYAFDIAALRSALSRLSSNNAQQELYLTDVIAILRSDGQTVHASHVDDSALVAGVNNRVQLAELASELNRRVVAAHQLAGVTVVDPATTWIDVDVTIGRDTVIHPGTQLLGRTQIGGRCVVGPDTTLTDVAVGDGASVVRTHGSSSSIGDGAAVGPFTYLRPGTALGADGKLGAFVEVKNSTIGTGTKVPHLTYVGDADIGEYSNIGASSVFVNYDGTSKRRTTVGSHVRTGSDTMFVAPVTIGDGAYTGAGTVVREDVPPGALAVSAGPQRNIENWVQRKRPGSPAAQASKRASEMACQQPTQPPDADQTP

[4] = THP-1 cell cytotoxicity, dose response, cytotoxicity control for non-replicating M. tuberculosis project (AID 489025); format: functional
CHO = CHO cell viability loss, potency – luminescence, cytotoxicity control for TLR9-MyD88 binding inhibitor project, dose response (AID 588339); format: functional, cell-based, hamster; conditions: Cricetulus griseus;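 note: CHO cells stably coexpressing TLR9 and MyD88 fusions from primary screen; compound exposure lasted 48 hours before viability readout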
[5] = target: T1, Histone-lysine N-methyltransferase NSD2 (Homo sapiens, UniProt O96028); format: biochemical
T1 sequence (O96028 whole entry): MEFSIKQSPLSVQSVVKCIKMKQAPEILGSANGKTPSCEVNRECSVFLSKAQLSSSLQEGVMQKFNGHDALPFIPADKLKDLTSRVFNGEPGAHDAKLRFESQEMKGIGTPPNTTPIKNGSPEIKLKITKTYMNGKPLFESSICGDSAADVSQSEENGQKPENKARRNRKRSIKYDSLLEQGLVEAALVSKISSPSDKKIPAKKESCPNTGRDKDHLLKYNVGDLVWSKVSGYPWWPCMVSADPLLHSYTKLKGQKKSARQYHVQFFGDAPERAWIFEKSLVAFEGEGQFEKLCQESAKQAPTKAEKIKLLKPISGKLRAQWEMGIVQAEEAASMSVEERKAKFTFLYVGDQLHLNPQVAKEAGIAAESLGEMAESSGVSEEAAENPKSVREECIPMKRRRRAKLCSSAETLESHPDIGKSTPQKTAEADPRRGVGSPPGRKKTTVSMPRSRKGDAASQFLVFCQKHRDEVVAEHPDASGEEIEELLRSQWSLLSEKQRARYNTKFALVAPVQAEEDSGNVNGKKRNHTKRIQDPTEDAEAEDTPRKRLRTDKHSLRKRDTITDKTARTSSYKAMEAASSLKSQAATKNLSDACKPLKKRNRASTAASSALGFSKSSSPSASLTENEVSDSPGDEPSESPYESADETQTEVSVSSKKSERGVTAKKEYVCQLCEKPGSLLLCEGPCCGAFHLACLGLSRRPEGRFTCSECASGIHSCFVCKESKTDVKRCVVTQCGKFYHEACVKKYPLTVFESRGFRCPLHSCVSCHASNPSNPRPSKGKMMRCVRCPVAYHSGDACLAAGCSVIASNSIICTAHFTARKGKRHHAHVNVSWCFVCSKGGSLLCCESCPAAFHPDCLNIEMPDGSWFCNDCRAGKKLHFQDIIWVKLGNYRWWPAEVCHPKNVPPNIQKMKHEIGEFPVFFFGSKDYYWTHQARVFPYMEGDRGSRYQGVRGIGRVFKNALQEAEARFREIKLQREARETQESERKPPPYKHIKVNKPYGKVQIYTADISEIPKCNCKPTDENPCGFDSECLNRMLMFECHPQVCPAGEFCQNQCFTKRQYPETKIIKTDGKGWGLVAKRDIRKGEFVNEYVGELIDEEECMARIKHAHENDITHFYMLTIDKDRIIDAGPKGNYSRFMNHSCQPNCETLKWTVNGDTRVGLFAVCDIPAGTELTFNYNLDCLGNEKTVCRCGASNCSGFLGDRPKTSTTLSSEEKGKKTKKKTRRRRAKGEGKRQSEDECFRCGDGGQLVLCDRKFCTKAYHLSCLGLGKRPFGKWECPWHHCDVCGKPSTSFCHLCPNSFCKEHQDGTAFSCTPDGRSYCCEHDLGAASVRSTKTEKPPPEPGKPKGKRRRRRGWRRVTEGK

Sequence of SUMO-activating enzyme (Q9UBE0 whole entry): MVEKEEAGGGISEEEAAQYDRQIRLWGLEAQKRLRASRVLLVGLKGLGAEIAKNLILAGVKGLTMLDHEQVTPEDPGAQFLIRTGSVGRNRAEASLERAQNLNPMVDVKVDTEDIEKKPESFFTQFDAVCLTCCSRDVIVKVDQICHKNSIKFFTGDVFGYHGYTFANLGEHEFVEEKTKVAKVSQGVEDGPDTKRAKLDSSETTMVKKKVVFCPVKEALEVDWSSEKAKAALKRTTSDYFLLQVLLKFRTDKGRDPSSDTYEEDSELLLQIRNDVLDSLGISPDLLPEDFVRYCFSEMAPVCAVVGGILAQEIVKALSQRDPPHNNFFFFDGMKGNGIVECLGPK
Sequence of SUMO-activating enzyme (Q9UBT2 whole entry): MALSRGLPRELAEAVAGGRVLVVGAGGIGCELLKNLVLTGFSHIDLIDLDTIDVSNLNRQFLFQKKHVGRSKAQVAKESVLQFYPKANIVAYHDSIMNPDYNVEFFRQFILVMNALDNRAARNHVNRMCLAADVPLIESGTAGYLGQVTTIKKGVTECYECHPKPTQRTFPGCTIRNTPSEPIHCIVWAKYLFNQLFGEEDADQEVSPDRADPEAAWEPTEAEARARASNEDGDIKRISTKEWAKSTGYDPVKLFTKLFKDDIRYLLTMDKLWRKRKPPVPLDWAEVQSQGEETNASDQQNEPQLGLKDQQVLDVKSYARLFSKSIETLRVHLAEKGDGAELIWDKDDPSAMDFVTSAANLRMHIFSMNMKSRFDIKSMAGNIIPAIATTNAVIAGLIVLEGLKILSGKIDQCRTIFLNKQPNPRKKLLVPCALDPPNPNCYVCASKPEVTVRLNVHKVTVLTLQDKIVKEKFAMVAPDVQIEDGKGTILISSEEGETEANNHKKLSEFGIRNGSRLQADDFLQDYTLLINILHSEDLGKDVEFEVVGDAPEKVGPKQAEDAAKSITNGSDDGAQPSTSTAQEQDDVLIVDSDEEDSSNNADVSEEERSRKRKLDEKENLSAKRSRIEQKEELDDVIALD

## O=C1C=C(Nc2ccccc2)c2ccccc2C1=O
SUMO-activating enzyme
  IC50: 1.47 µM (active)

## O=C(Nc1ccccc1)c1nnsc1[S+]([O-])c1ccc(Cl)cc1 (stereo not drawn)
[1]
  EC50: 8.7 µM (active)
[2]
  EC50: 4.31 µM (active)
Large T antigen
  IC50: 25 µM (active)
[3]
  IC50: 197 µM (active)
[4]
  CC50: 23.4 µM (active)
CHO
  IC50: 3.46 µM (active)

## CC1OC(Nc2cccc3ccccc23)C(O)C(O)C1O (stereo not drawn)
[5]
  AC50: 9.24 µM (active)
